Test results taken from patent US10463632B2, “Method for treating a neurovascular complication of diabetes mellitus” (KING SAUD UNIVERSITY, priority 2016, dated 2019).

Columns and labels:
Type in all cases: in vivo, Sprague Dawley rats
[1] = test system: tyrosine hydroxylase (TH); experiment: Western blot of retinal tyrosine hydroxylase expression in diabetic rats; details: diabetic rat retinas, thymoquinone 2 mg/kg i.p. alternate days, three weeks; FIG. 1B
Protocol: (§1) Healthy Sprague Dawley rats (150-200 g) were used for the trials. Animals were issued from Central Animal House Facility of the College of Pharmacy, King Saud University and were kept in standard plastic animal cages in groups of 6 animals each with 12 hours light and dark cycle at 25±2° C. The rats were fed on standard rat chow and provided water ad libitum. The animals were acclimatized to laboratory conditions for a week prior to experiments. Diabetes was induced in overnight fasted rats by administration of Streptozotocin (STZ) at dose of 55 mg/kg intraperitoneally in citric acid buffer (pH 4.5). After one hour of STZ administration, the animals were allowed to feed ad libitum. […] Relevant biochemical parameters including serum creatinine, uric acid, alanine aminotransferase (ALT), aspartate aminotransferase (AST), alkaline phosphatase and bilirubin were assessed using colorimetric methods. […] After incubations with secondary antibodies, membranes were washed four times with TBS-T (5 min each) and the immunoreactivity of bands was visualized on a high-performance chemiluminescence machine by using enhanced chemiluminescence plus Luminol and quantified by densitometric analysis using image processing and analysis in GeneTools. As a control, the blots were stripped and detected with a mouse monoclonal anti-β-actin antibody (1:2000). […]

[2] = test system: Streptozotocin (STZ)-induced diabetic rats; experiment: Blood glucose concentration in STZ-induced diabetic rats with thymoquinone administration; details: TQ 2 mg/Kg intraperitoneally on alternate days
Protocol: (§2) Healthy Sprague Dawley rats (150-200 g) were used for the trials. Animals were issued from Central Animal House Facility of the College of Pharmacy, King Saud University and were kept in standard plastic animal cages in groups of 6 animals each with 12 hours light and dark cycle at 25±2° C. The rats were fed on standard rat chow and provided water ad libitum. The animals were acclimatized to laboratory conditions for a week prior to experiments. Diabetes was induced in overnight fasted rats by administration of Streptozotocin (STZ) at dose of 55 mg/kg intraperitoneally in citric acid buffer (pH 4.5). After one hour of STZ administration, the animals were allowed to feed ad libitum. The animals were kept under observation and fasting blood glucose levels were estimated […] 72 hours of STZ treatment. Animals showing blood glucose levels >350 mg/dl were considered as diabetic and were used for further trials. Diabetic rats were divided into two groups (10 rats per group) at random. Group I served as diabetic control. Group II were administered thymoquinone (2 mg/kg intraperitoneally) in alternate days for three weeks. Healthy rats were also kept as normal controls. Relevant biochemical parameters including serum creatinine, uric acid, alanine aminotransferase (ALT), aspartate aminotransferase (AST), alkaline phosphatase and bilirubin were assessed using colorimetric methods.

[3] = test system: brain derived neurotrophic factor (BDNF); experiment: Western blot of retinal BDNF expression in diabetic rats; details: diabetic rat retinas, thymoquinone 2 mg/kg i.p. alternate days, three weeks; FIG. 1A
Protocol: as §1

[4] = test system: nerve growth factor receptor (NGFR); experiment: Western blot of retinal NGFR expression in diabetic rats; details: diabetic rat retinas, thymoquinone 2 mg/kg i.p. alternate days, three weeks; FIG. 1C
Protocol: as §1

[5] = test system: Blood-Retinal Barrier in STZ-Induced Diabetic Rats; experiment: Measurement of Blood Retinal Barrier (BRB) breakdown with FITC-conjugated dextran; details: thymoquinone 2 mg/kg on alternate days, compared with diabetic retinas, FIG. 3
Protocol: Healthy Sprague Dawley rats (150-200 g) were used for the trials. Animals were issued from Central Animal House Facility of the College of Pharmacy, King Saud University and were kept in standard plastic animal cages in groups of 6 animals each with 12 hours light and dark cycle at 25±2° C. The rats were fed on standard rat chow and provided water ad libitum. The animals were acclimatized to laboratory conditions for a week prior to experiments. Diabetes was induced in overnight fasted rats by administration of Streptozotocin (STZ) at dose of 55 mg/kg intraperitoneally in citric acid buffer (pH 4.5). After one hour of STZ administration, the animals were allowed to feed ad libitum. […] Relevant biochemical parameters including serum creatinine, uric acid, alanine aminotransferase (ALT), aspartate aminotransferase (AST), alkaline phosphatase and bilirubin were assessed using colorimetric methods. Rat retinas were analyzed for Blood Retinal Barrier (BRB) breakdown after 3 weeks of thymoquinone dosing using fluorescein isothiocyanate (FITC)-conjugated dextran as previously described in the prior art. […] Fluorescence was measured using a Spectra Max Gemini-XPS with excitation and emission wavelengths of 485 nm and 538 nm, respectively, with PBS as a blank. Blood retinal barrier breakdown was calculated using the following equation (1) with the results being expressed in μL g^−1 hr^−1. […]

[6] = test system: Streptozotocin (STZ)-induced diabetic rats; experiment: Kidney and liver function tests (colorimetric serum biochemistry) in STZ-induced diabetic rats
Protocol: as §2

[7] = test system: reactive oxygen species (ROS); experiment: Reactive Oxygen Species (ROS) measurement in retinal tissue homogenates (DCF fluorescence); details: retinas of diabetic animals treated with thymoquinone; FIG. 2
Protocol: as §2, with “Animals showing blood glucose levels >350 mg/dl were considered as diabetic and were used for further trials. Diabetic rats were divided into two groups (10 rats per group) at random. Group I served as diabetic control. Group II were administered thymoquinone (2 mg/kg intraperitoneally) in alternate days for three weeks. Healthy rats were also kept as normal controls.” left out
Reactive Oxygen Species (ROS) generation was measured in retinal tissue homogenates using a 2′,7′-dichlorofluorescein-diacetate (DCHFDA) as is known in the art. […] Fluorescence was measured using a SpectraMax Gemini-XPS every 15 min for 1 hour with excitation and emission wavelengths of 488 nm and 525 nm, respectively.

cleaved caspase-3 = experiment: Western blot of retinal cleaved caspase-3 in diabetic rats; details: diabetic rat retinas, thymoquinone 2 mg/kg i.p. alternate days, three weeks; FIG. 1D
Protocol: as §1

[8] = diabetic rats treated with TQ 2 mg/kg i.p. on alternate days for three weeks

CC1=CC(=O)C(C(C)C)=CC1=O [thymoquinone, 2-Isopropyl-5-methylbenzo-1,4-quinone]
retinal TH levels (diabetes-induced decrease of about 32%) [1]: normalized
Glucose Concentration ([2]; after 7 days of TQ treatment): 580.58 ± 2.40 mg/dL
Glucose Concentration ([2]; after 14 days of TQ treatment): 559.55 ± 1.29 mg/dL
Glucose Concentration ([2]; after 21 days of TQ treatment): 495.10 ± 5.71 mg/dL
retinal BDNF expression (diabetes-induced down-regulation of about 65%) [3]: normalized
retinal NGFR expression (diabetes-induced increase of about 75%) [4]: normalized
effect of diabetes on BRB breakdown (retinal vascular permeability) [5]: significantly attenuated
kidney and liver function tests versus untreated diabetic animals ([6]; diabetic rats that received thymoquinone): more normal
ALKALINE Phos [6, 8]: 179.08 ± 4.51 U/l
ALT [6, 8]: 134.43 ± 5.21 U/l
AST [6, 8]: 138.48 ± 2.94 U/l
Bilirubin [6, 8]: 3.23 ± 0.04 mg/dL
Creatinine [6, 8]: 0.62 ± 0.05 mg/dL
Uric acid [6, 8]: 4.99 ± 0.07 mg/dL
ROS generation (DCF retinal levels) [7]: significantly attenuated
retinal cleaved caspase-3 (diabetes-induced up-regulation of about 52%) (cleaved caspase-3): normalized
